≈ marks a conversion by molar mass, not a printed value.
Conditions: buffer; pH 7.4; 200.0 µM

Row | Compound | solubility kinetic [µg/mL]
1 | CN(C)CCCNC(=O)c1cc(C(=O)c2ccccc2F)c[nH]1 | > 47.6
2 | COc1cc2[nH]c(=S)n(Cc3cccs3)c(=O)c2cc1OC | < 0.4
3 | CC(C)(C)NC(=O)C1CC1(c1ccccc1)c1ccccc1 (centres undefined) | 2.8 (≈ 9.54 µM)
4 | O=C(C1CC1)N(Cc1nc2ccccc2c(=O)[nH]1)Cc1cccs1 | > 50.9
5 | COc1ccc(-c2cc(C(=O)OCC(=O)N3CCOCC3)c3ccccc3n2)cc1 | 26.3 (≈ 64.7 µM)
6 | S=C(NCC1CCCO1)NC12CC3CC(CC(C3)C1)C2 (centres undefined) | 4 (≈ 13.6 µM)
7 | CCn1c(=S)[nH]c2sc3c(c2c1=O)CCCC3 | 9.2 (≈ 34.5 µM)
8 | O=[N+]([O-])c1ccc(Cl)cc1NCc1cccnc1 | > 39.6
9 | Cc1cc(C)c2c(=O)cc(C(=O)NCc3ccccc3)oc2c1 | < 0.7
10 | CCCCn1c(O)c(C(=O)/C=C/c2ccc3c(c2)OCO3)c(=O)[nH]c1=O | > 53.8
11 | CCCNC(=O)C/C(C)=N/NC(=O)C(=O)Nc1ccccn1 | > 45.8
12 | COC(=O)C1=C(C)NC(C)=C(C(=O)OC)C1c1ccco1 | 21.9 (≈ 75.2 µM)
13 | CN(C)c1ccc(/C=C2\SC(N3CCCCC3)=NC2=O)cc1 | 4.7 (≈ 14.9 µM)
14 | CCOC(=O)CCCC(=O)N1CCOCCOCCOCC1 | > 47.6
15 | CCOC(=O)CN(C#N)c1nc(N(C)C)nc(N(C)C)n1 | 17.8 (≈ 60.7 µM)
16 | c1nc(Nc2ccc(N3CCOCC3)cc2)c2ccsc2n1 | > 46.9
17 | CN(C)C(=O)c1cc(C(=O)c2ccccc2)c[nH]1 | > 36.3
18 | CC1CC(=O)Nc2ccccc2N1C(=O)CN1C(=O)C(=O)N(C)C1=O (centres undefined) | > 51.6
19 | COc1cc2ncnc(NCc3ccc(C)o3)c2cc1OC | 35 (≈ 117 µM)
20 | Cc1ccc(NC(=O)CCSc2nnc(C)o2)cc1 | > 41.6
21 | Cc1ccc(N2C(=O)CC3(CCCC3)CC2=O)cc1 | 34.3 (≈ 133 µM)
22 | CC(NC(=O)Nc1cccc(F)c1)c1ccc2c(c1)OCO2 (centres undefined) | 2.1 (≈ 6.95 µM)
23 | COc1ccccc1C(=O)NC1CCN(C(=O)Nc2ccc(C)cc2)CC1 | 46.8 (≈ 127 µM)
24 | COc1ccc(/C=C/C(=O)NC(=S)NCc2ccccc2)cc1OC | 2.4 (≈ 6.73 µM)

Row | Compound | solubility kinetic [µg/mL]
25 | NS(=O)(=O)c1ccc(NC(=S)NC(=O)c2cccs2)cc1 | 6.2 (≈ 18.2 µM)
26 | Cc1ccccc1SCC(=O)NCC(c1ccc(F)cc1)N1CCOCC1 (centres undefined) | > 58.3
27 | CC(Oc1ccccc1F)C(=O)NC1CCS(=O)(=O)C1 (centres undefined) | > 45.2
28 | Cc1cccc(NS(=O)(=O)c2ccc3c(c2)CCC(=O)N3)c1 | > 47.5
29 | CCOc1ccc(NC(=O)CCC(=O)Oc2ccc(C)cc2)cc1 | 19.5 (≈ 59.6 µM)
30 | c1ccc(CN2CCN(c3ncccn3)CC2)cc1 | 24.5 (≈ 96.3 µM)
31 | O=C1N=c2ccccc2=C1c1c(O)[nH]c2c(C(F)(F)F)cccc12 | < 0.4
32 | Cc1ccc(-c2nc(N)sc2C)cc1 | 30.2 (≈ 148 µM)
33 | O=C(Cc1ccc(Cl)cc1)Nc1ccc(Cl)cn1 | 3.1 (≈ 11 µM)
34 | COc1ccc(F)cc1S(=O)(=O)NCCN1CCOCC1 | > 47.8
35 | CC(NC(=O)c1ccc(N(C)C)cc1)c1ccc(F)cc1 (centres undefined) | 6.5 (≈ 22.7 µM)
36 | CCN(C(=O)COc1ccc2ccc(=O)oc2c1)C1CCCCC1 | > 49.4
37 | COc1ccc([N+](=O)[O-])cc1N1C(=O)c2cccnc2C1=O | > 44.9
38 | O=C(CS(=O)(=O)c1ccccc1)Nc1ncc([N+](=O)[O-])s1 | > 49.1
39 | CCCNC(=O)Nc1nc2ccccc2s1 | 34 (≈ 144 µM)
40 | CC(=O)Nc1ccc(S(=O)(=O)N2CCCC2)cc1 | > 40.2
41 | COC(=O)C1=C(C)NC(=O)NC1c1ccc(-c2ccc(Cl)cc2)o1 (centres undefined) | 4.8 (≈ 13.8 µM)
42 | O=C(Nc1cccc(C(F)(F)F)c1)c1sc(Cl)nc1C(F)(F)F | 36.3 (≈ 96.9 µM)
43 | O=C(O)C1CCN(S(=O)(=O)c2ccc3c(c2)OCCCO3)CC1 | > 51.2
44 | CCC(=Nc1ccccc1N)c1c(O)[nH]c(=O)[nH]c1=O | 5.6 (≈ 20.4 µM)
45 | COc1ccc(S(=O)(=O)N2CCc3ccccc32)cc1[N+](=O)[O-] | 6.4 (≈ 19.1 µM)
46 | CC1CN=C(Nc2ccc(F)c(Cl)c2)S1 (centres undefined) | 17.3 (≈ 70.7 µM)
47 | O=C(NCCCc1ccccc1)c1ccc(F)cc1 | > 38.6
48 | CC(=O)Nc1cccc(OCCCNC(=O)c2cccc3ccccc23)c1 | 46.8 (≈ 129 µM)

Row | Compound | solubility kinetic [µg/mL]
49 | O=C(COC(=O)/C=C/c1ccc(Cl)cc1Cl)NCc1ccco1 | 5.9 (≈ 16.7 µM)
50 | CC(C)(C)c1ccc(C(CC(=O)O)NC(=O)CSc2ccccc2)cc1 (centres undefined) | > 55.7
51 | CCC(=O)NN1CCN(c2ccncc2S(=O)(=O)N2CCCCC2)CC1 | > 57.2
52 | O=S(=O)(c1ccc(Cl)cc1)N1CCN(c2ncnc3sccc23)CC1 | 7 (≈ 17.7 µM)
53 | CCOC(=O)COc1ccc2c(c1)c(C(C)=O)c(C)n2-c1ccccc1 | < 0.8
54 | O=c1cc(-c2ccccc2)c2cc(Cl)ccc2[nH]1 | < 0.5
55 | CCN(CC)CCn1c(-c2ccc(C)cc2)nc(=S)c2c1CC(C)(C)OC2 | > 57.8
56 | C=CCn1c(SCc2ccccc2)nc2c1c(=O)[nH]c(=O)n2C | 25 (≈ 76.1 µM)
57 | O=S(=O)(NCCCN1CCOCC1)c1ccc(Cl)s1 | 48.4 (≈ 149 µM)
58 | O=c1nccc(N/N=C/c2cccc(O)c2)[nH]1 | > 34.5
59 | CCc1nonc1NC(=O)c1oc2cc(C)c(Cl)cc2c1C | 0.5 (≈ 1.56 µM)
60 | Cc1ccc(NC(=S)NCCN2CCOCC2)cc1F | > 44.6
61 | O=C(Nc1ncccn1)c1ccc([N+](=O)[O-])cc1Cl | 27.8 (≈ 99.8 µM)
62 | Cc1ccc(N2CC(C(=O)OCC(=O)c3ccc(F)cc3)CC2=O)cc1 (centres undefined) | 23.5 (≈ 66.1 µM)
63 | CC1CCCCC12NC(=O)N(CC(=O)OCc1c(F)cccc1Cl)C2=O (centres undefined) | 53.3 (≈ 139 µM)
64 | COC(=O)CC1C(=O)NCCN1C(=O)c1c(F)cccc1F (centres undefined) | > 46.8
65 | CC(=O)c1ccc(NC(=O)C(C)NCc2ccc(Cl)cc2)cc1 (centres undefined) | 42.9 (≈ 130 µM)
66 | CCN1CCN(c2ncnc3scc(-c4ccc(C)c(C)c4)c23)CC1 | > 52.9
67 | CC(=O)c1c(C)n(CC(=O)NCc2ccco2)c2ccccc12 | 18.5 (≈ 59.6 µM)
68 | O=C(NC(=S)NC1CCCCC1)c1ccccc1 | 8.5 (≈ 32.4 µM)
69 | Cc1ccc(Cl)c(N/C=C/C(=O)c2ccccc2)c1 | < 0.6
70 | COc1ccc(NC(=O)C2CCC2)cc1S(=O)(=O)Nc1cc(C)ccc1Br | 1.1 (≈ 2.43 µM)
71 | Cc1cccnc1NC(=O)Nc1cccc(Cl)c1 | 0.5 (≈ 1.91 µM)
72 | COc1ccc2nc(-c3ccccc3)cc(C(=O)N3CCC3)c2c1 | > 47.8

Row | Compound | solubility kinetic [µg/mL]
73 | O/C(=C\c1nc2ccccc2[nH]1)c1cccs1 | 28.3 (≈ 117 µM)
74 | O=C(CN1C(=O)NC2(CCCc3ccccc32)C1=O)c1ccccc1F (centres undefined) | 10.4 (≈ 29.5 µM)
75 | COc1cc(C(=O)CSc2nccn2C)cc(OC)c1OC | > 48.4
76 | O=C(CCNC(=O)c1ccco1)Nc1ccc(Cl)cc1F | > 46.6
77 | CC(C)[C@H](NC(=O)c1ccc(Cl)cc1)C(=O)OCC(=O)N1CCN(c2ccccc2)CC1 | 52.5 (≈ 115 µM)
78 | Cn1c(O)c(C=NCCN2CCOCC2)c(=O)[nH]c1=S | > 44.8
79 | COC(=O)CC1=NN(c2nc3ccccc3s2)C(=O)/C1=C/N(C)C | > 51.7
80 | CC(=O)Nc1ccc(NC(=O)c2cccc3ccccc23)cc1 | 1.7 (≈ 5.59 µM)
81 | CC1SCC(=NOCc2c(Cl)cccc2Cl)CS1 (centres undefined) | < 0.7
82 | Cc1ccc(Sc2ncccc2N)cc1 | 32.2 (≈ 149 µM)
83 | O=C(OCC(=O)N1CCCC1=O)c1cccc([N+](=O)[O-])c1 | > 43.8
84 | O=C(CN1CCC(NC(=O)C2CCCCC2)CC1)Nc1cccc(F)c1 | 18.4 (≈ 50.9 µM)
85 | N#Cc1cc2c(nc1SCC(=O)O)CCCCC2 | > 39.3
86 | CC(=O)c1ccc(CC2SC(N)=NC2=O)cc1 (centres undefined) | > 37.2
87 | CCOC(=O)CSc1nc(C)cc2c1C(=O)OC2 | 37.5 (≈ 140 µM)
88 | C(=C\c1ccccc1)/CN1CCN(Cc2ccc3c(c2)OCO3)CC1 | 43 (≈ 128 µM)
89 | COC(=O)c1ccc(NC(=O)[C@H](C)NC(N)=O)cc1 | > 39.8
90 | C=CCn1c(O)c(C(C)=NCC2CCCO2)c(=O)[nH]c1=O (centres undefined) | > 44
91 | COC(=O)c1ccccc1Nc1ccnc(Cl)n1 | 32.1 (≈ 122 µM)
92 | CC(N=Cc1c(O)c2ccccc2oc1=O)C(=O)O (centres undefined) | > 39.2
93 | S=C(Nc1ccccc1)Nc1ccccc1-n1cccc1 | 34.2 (≈ 117 µM)
94 | C[n+]1cn(Cc2ccc(C#N)cc2)c2ccccc21.[Cl-] | 39.4
95 | Cc1ccc(C)c(S(=O)(=O)N2CCN(C(=O)[C@H](Cc3ccccc3)NC(=O)c3ccco3)CC2)c1 | 18.2 (≈ 36.7 µM)
96 | CCOC(=O)C1CCN(S(=O)(=O)c2ccccc2)CC1 | > 44.6

Row | Compound | solubility kinetic [µg/mL]
97 | CCN(C(=O)CSc1nc(C)nc2sc3c(c12)CCC3)C1CCS(=O)(=O)C1 (centres undefined) | 5.4 (≈ 12.7 µM)
98 | C/C=C/C(=O)OCC(=O)Nc1cccc(Br)c1 | 29 (≈ 97.3 µM)
99 | Cc1ccccc1OCCN(C#N)c1nc(N(C)C)nc(N(C)C)n1 | 0.4 (≈ 1.17 µM)
100 | COc1ccccc1C(C)NC(=O)Cc1ccsc1 (centres undefined) | > 41.3
101 | CC(C)n1c(SCC(=O)Nc2nncs2)nnc1C1CC1 | > 48.7
102 | O=C(O)COCC(=O)NCc1nc(-c2ccc(C(F)(F)F)cc2)no1 | > 53.9
103 | Cc1ccccc1-c1nc2cc(NC(=O)C3CC3)ccc2o1 | 0.8 (≈ 2.74 µM)
104 | Cc1cccc(C(=O)OCC(=O)NCc2ccco2)c1 | > 41
105 | Clc1cc(-c2ccccc2)nc(-c2ccccc2)n1 | < 0.3
106 | Nc1nc2c([N+](=O)[O-])cccc2s1 | 23 (≈ 118 µM)
107 | Cc1ccsc1C(=O)OCC(=O)N1CC(C)CC(C)C1 (centres undefined) | > 44.3
108 | Cc1ccc(S(=O)(=O)Nc2cccc3ncccc23)cc1 | 31.1 (≈ 104 µM)
109 | O=C(O)C1CCN(C(=O)CSc2nnc(-c3ccccc3)o2)CC1 | > 52.1
110 | C=CCNc1nc(NCc2ccccc2)nc(OCC)n1 | 36.6 (≈ 128 µM)
111 | COc1cc([N+](=O)[O-])ccc1NC(=O)N1CCCCCC1 | 32.1 (≈ 109 µM)
112 | CN(C)c1nc(N)c([N+](=O)[O-])c(N2CCCCCC2)n1 | 39.7 (≈ 142 µM)
113 | CN(Cc1ccccc1)C(=O)c1cccnc1 | > 33.9
114 | Cc1ccc(-n2c(O)c(C=NCc3ccccn3)c(=O)[nH]c2=S)cc1 | 29.6 (≈ 84 µM)
115 | Cc1nnc(SCC(=O)NC(=O)NC(C)C)s1 | > 41.2
116 | Cc1ccc(Cl)c(NC(=O)CSc2cccc[n+]2[O-])c1Cl | > 51.5
117 | CC(C)Cn1c(=S)[nH]c2cc(C(=O)O)ccc2c1=O | > 41.7
118 | CCc1ccc(NC(=O)C(=O)NCc2ccccn2)cc1 | 16.1 (≈ 56.8 µM)
119 | CS(=O)(=O)Oc1ccc2c(c1)O/C(=C\c1cccnc1)C2=O | 5 (≈ 15.8 µM)

— PubChem BioAssay AID1996
